According to paper PMC7887755, “Structure–Activity Relationships of Pyrazolo[1,5-a]pyrimidin-7(4H)-ones as Antitubercular Agents” (ACS Infectious Diseases, 2021):
In brackets after ≈: the same amount, converted by molar mass. Several values for one entry are separate records, joined by “and”; a condition that tells them apart may be missing. Equal values may be shown once. Read-outs that look alike come from different tables or passages of the source.

Columns and labels:
Mtb H37Rv [1] = assay: microbe, parasite or virus in culture; format: cell-based, Mycobacterium tuberculosis
in vitro = conditions: human, 24 h
[2] = system: cell wall responsive iniBAC promoter (piniB-LUX reporter strain); format: cell-based, Mycobacterium tuberculosis
HepG2 cells = conditions: 24 h
Mtb H37Rv WT = assay: microbe, parasite or virus in culture; format: cell-based; conditions: Mycobacterium tuberculosis
Mtb strain H37Rv = assay: MIC against Mtb H37Rv under various media/carbon sources; format: cell-based; conditions: Mycobacterium tuberculosis
[3] = system: DNA damage responsive recA and radA reporters; format: cell-based, Mycobacterium tuberculosis
Mtb H37Rv [4] = assay: MIC under iron-depleted (DFO) or iron-replete (FeCl3) conditions; format: cell-based, Mycobacterium tuberculosis; conditions: MIC of the iron-modulating additive itself
[5] = Mycobacterium tuberculosis, H37RV, read-out: MIC in 7H9 ADC
[6] = Mycobacterium tuberculosis, H37RV, read-out: MIC in 7H9 GCas
[7] = Cytotoxicity (IC50) Galactose, HepG2 cells in DMEM/10% FBS with galactose
[8] = Cytotoxicity (IC50) Glucose, HepG2 cells in DMEM/10% FBS supplemented with glucose
[9] = read-out: Cytotoxicity (IC50) Galactose, HepG2 cells in DMEM/10% FBS with galactose
[10] = read-out: Cytotoxicity (IC50) Glucose, HepG2 cells in DMEM/10% FBS supplemented with glucose

Compound	MIC (Mtb H37Rv [1]; [5])	MIC (Mtb H37Rv [1]; [6])	IC50 (in vitro; [7])	IC50 (in vitro; [8])	MIC (Mtb H37Rv [1]; read-out: MIC in 7H9 ADC)	MIC (Mtb H37Rv [1]; read-out: MIC in 7H9 GCas)	IC50 (HepG2 cells; [9])	IC50 (HepG2 cells; [10])	other results
CC(C)c1nn2c(=O)cc(-c3ccccc3)[nH]c2c1-c1ccccc1 [Compound P23, 2-Isopropyl-3,5-diphenylpyrazolo[1,5-a]pyrimidin-7(4H)-one]	> 100 µM	12.5 µM (≈ 4.12 µg/mL)	86.2 µM	> 100 µM					
CC(C)=CCC/C(C)=C/CNCCNC1C2CC3CC(C2)CC1C3 (stereo not drawn) [SQ109]									reporter gene assay cell wall [2]: yes
5-(2-Fluorophenyl)-2-methyl-3-phenylpyrazolo[1,5-a]pyrimidin-7(4H)-one [Compound P16]					12.5 µM	3.12 µM	> 100 µM	> 100 µM	
O=c1[nH]n2c(=O)cc(-c3ccccc3)[nH]c2c1-c1ccccc1 [Compound P3, 3,5-Diphenylpyrazolo[1,5-a]pyrimidine-2,7(1H,4H)-dione]	> 100 µM	> 100 µM							
5-(Furan-3-yl)-2-methyl-3-phenylpyrazolo[1,5-a]pyrimidin-7(4H)-one [Compound P14]					25.0 µM and 25 µM	3.12 µM	> 100 µM	> 100 µM	
O=c1cc(-c2ccc(F)c(F)c2)[nH]c2c(-c3ccc(Cl)cc3)cnn12 [Compound P26, 3-(4-Chlorophenyl)-5-(3,4-difluorophenyl)pyrazolo[1,5-a]pyrimidin-7(4H)-one]	12.5 µM (≈ 4.47 µg/mL)	12.5 µM (≈ 4.47 µg/mL)	18.5 µM	57.2 µM					potency relative to P25 (Mtb H37Rv [1]): 4 fold
Antimycin [reference compound]							3.4 µM	69.7 µM	
5-(4-Fluorophenyl)-2-methyl-3-phenylpyrazolo[1,5-a]pyrimidin-7(4H)-one [Compound P18]					6.25 µM	1.56 µM	> 100 µM	> 100 µM	
Cc1nn2c(=O)c(C)c(-c3ccccc3)[nH]c2c1-c1ccccc1 [Compound P6, 2,6-Dimethyl-3,5-diphenylpyrazolo[1,5-a]pyrimidin-7(4H)-one]	43.8 µM (≈ 13.8 µg/mL)	3.12 µM (≈ 0.984 µg/mL)	> 100 µM	> 100 µM					
2-Methyl-3-phenyl-5-(pyrazin-2-yl)pyrazolo[1,5-a]pyrimidin-7(4H)-one [Compound P15]					50.0 µM and 50 µM	12.5 µM	> 100 µM	> 100 µM	
Cc1nn2c(=O)nc(-c3ccccc3)[nH]c2c1-c1ccccc1 [Compound P5, 7-Methyl-2,8-diphenylpyrazolo[1,5-a][1,3,5]triazin-4(1H)-one]	> 100 µM	50 µM (≈ 15.1 µg/mL)				50 µM (≈ 15.1 µg/mL)			
Cc1nn2c(=O)cc(-c3ccccc3)[nH]c2c1C [Compound P21, 2,3-Dimethyl-5-phenylpyrazolo[1,5-a]pyrimidin-7(4H)-one]	> 100 µM	12.5 µM (≈ 2.99 µg/mL)	> 100 µM	> 100 µM					
Cc1nn2c(=O)cc(-c3ccccc3)n(C)c2c1-c1ccccc1 [Compound P2, 2,4-Dimethyl-3,5-diphenylpyrazolo[1,5-a]pyrimidin-7(4H)-one]	> 100 µM	50 µM (≈ 15.8 µg/mL)				50 µM (≈ 15.8 µg/mL)			
Nc1nn2c(=O)cc(-c3ccccc3)[nH]c2c1-c1ccccc1 [Compound P4, 2-Amino-3,5-diphenylpyrazolo[1,5-a]pyrimidin-7(4H)-one]	28.1 µM (≈ 8.5 µg/mL)	25 µM (≈ 7.56 µg/mL)				25 µM (≈ 7.56 µg/mL)			
Cc1nn2c(=O)c(C(F)(F)F)c(-c3ccccc3)[nH]c2c1-c1ccccc1 [Compound P7, 2-Methyl-3,5-diphenyl-6-(trifluoromethyl)pyrazolo[1,5-a]pyrimidin-7(4H)-one]	12.5 µM (≈ 4.62 µg/mL)	3.12 µM (≈ 1.15 µg/mL)							
CC/C(=C(\c1ccccc1)c1ccc(OCCN(C)C)cc1)c1ccccc1 [Tamoxifen, reference compound]			5.93 µM	4.18 µM					
5-(3-Fluorophenyl)-2-methyl-3-phenylpyrazolo[1,5-a]pyrimidin-7(4H)-one [Compound P17]					6.25 µM	1.56 µM	93.8 µM	> 100 µM	
O=c1cc(-c2ccc(F)c(F)c2)[nH]c2c(-c3ccccc3)c(C(F)(F)F)nn12 [Compound P27, 5-(3,4-Difluorophenyl)-3-phenyl-2-(trifluoromethyl)pyrazolo[1,5-a]pyrimidin-7(4H)-one]	> 100 µM	100 µM (≈ 39.1 µg/mL)	> 100 µM	> 100 µM					
Cc1nn2c(=O)cc(CN3CCOCC3)[nH]c2c1-c1ccccc1 [Compound P10, 2-Methyl-5-(morpholinomethyl)-3-phenylpyrazolo[1,5-a]pyrimidin-7(4H)-one]	> 100 µM	> 100 µM	> 100 µM	> 100 µM					
5-Cyclohexyl-2-methyl-3-phenylpyrazolo[1,5-a]pyrimidin-7(4H)-one [Compound P11]					>100 µM	>100 µM	> 100 µM	> 100 µM	
2-Methyl-3-phenyl-5-(pyridin-3-yl)pyrazolo[1,5-a]pyrimidin-7(4H)-one [Compound P13]					50.0 µM and 50 µM	12.5 µM	> 100 µM	> 100 µM	
COc1cc(-c2ccccc2)nc2c(-c3ccccc3)c(C)nn12 [Compound P1, 7-Methoxy-2-methyl-3,5-diphenylpyrazolo[1,5-a]pyrimidine]	100 µM (≈ 31.5 µg/mL)	> 100 µM							
O=c1cc(-c2ccccc2)[nH]c2c(-c3ccccc3)cnn12 [Compound P22, 3,5-Diphenylpyrazolo[1,5-a]pyrimidin-7(4H)-one]	12.5 µM (≈ 3.59 µg/mL)	6.25 µM (≈ 1.8 µg/mL)	> 100 µM	> 100 µM					
NNC(=O)c1ccncc1 [INH, isoniazid, reference compound]	0.23 µM (≈ 0.0315 µg/mL)	0.16 µM (≈ 0.0219 µg/mL)							MIC (Mtb H37Rv WT): 0.04 µM (≈ 0.00549 µg/mL); MIC (Mtb strain H37Rv; GAST/Fe, read-out: MIC GAST): 0.1 µM (≈ 0.0137 µg/mL); MIC (Mtb strain H37Rv; read-out: MIC 7H9): 0.39 µM (≈ 0.0535 µg/mL); MIC (Mtb strain H37Rv; read-out: MIC Chol): 0.2 µM (≈ 0.0274 µg/mL); MIC (Mtb strain H37Rv; read-out: MIC GBSA/DBSA): 0.3 µM (≈ 0.0411 µg/mL)
COc1c(N2C[C@@H]3CCCN[C@@H]3C2)c(F)cc2c(=O)c(C(=O)O)cn(C3CC3)c12 [MOX, moxifloxacin]									reporter gene assay DNA damage [3]: yes
5-Isobutyl-2-methyl-3-phenylpyrazolo[1,5-a]pyrimidin-7(4H)-one [Compound P12]					100 µM	12.5 µM	> 100 µM	> 100 µM	
Cc1nn2c(=O)cc(Cc3ccccc3)[nH]c2c1-c1ccccc1 [Compound P8, 5-Benzyl-2-methyl-3-phenylpyrazolo[1,5-a]pyrimidin-7(4H)-one]	75 µM (≈ 23.7 µg/mL)	3.12 µM (≈ 0.984 µg/mL)	> 100 µM	> 100 µM	75 µM (≈ 23.7 µg/mL)				
[Cl][Fe]([Cl])[Cl] [FeCl3]									MIC (Mtb H37Rv [4]): 500 µM
Cc1nn2c(=O)cc(CC3CCCCC3)[nH]c2c1-c1ccccc1 [Compound P9, 5-(Cyclohexylmethyl)-2-methyl-3-phenylpyrazolo[1,5-a]pyrimidin-7(4H)-one]	> 100 µM	> 100 µM	50.5 µM	85.8 µM					
